Measurements as given in patent US20250206845A1, “PHARMACEUTICAL COMPOSITION INCLUDING RHO-KINASE INHIBITOR FOR PREVENTION OR TREATMENT OF CUTANEOUS FIBROTIC DISORDERS SUCH AS KELOID, ETC. AND USE THEREOF” (Seoul National University R&DB Foundation, priority 2022, published 2025).
Like-named read-outs stand apart in the source and are kept apart here.

Columns and labels:
F-actin = F-actin immunofluorescence in keloid fibroblasts; type: cell-based, human
Protocol: Immunofluorescence confocal microscopy experiments were performed with antibodies to F-actin (green) and vinculin (orange). Scale bar=50 μm. Quantification of fluorescence intensity was shown. The experiments were performed in triplicate. Student's t test was used for all analyses. * P<0.05. […] Scale bar=50 μm. The results were expressed as the mean with SD (n=5). The experiments were performed in triplicate. Student's t test was used for all analyses. * P<0.05. […] Cells were washed twice with cold PBS and fixed overnight at 4° C. with 4% (w/v) paraformaldehyde. […] The cells were exposed to blocking buffer (1% BSA/PBS) for 30 min at room temperature and then exposed to Alexa Fluor 488-conjugated phalloidin (#A12379, Invitrogen, USA) in 1% BSA/0.1% Triton X-100/PBS for 1 hour at room temperature. After three washing steps, the cells were mounted with DAPI mounting medium, sealed with coverslip, and examined using a confocal laser scanning microscope (LSM 900; Carl Zeiss, NY, USA).

[1] = tested on: COL1A1, COL3A1, Fibronectin, α-SMA, CTGF, PCNA mRNA; assay: qRT-PCR of pro-fibrotic genes in keloid fibroblasts; type: cell-based, human; conditions: mechanically stimulated keloid fibroblasts, FIG. 5A
Protocol: Scale bar=200 μm. The results were expressed as the mean with SD (n=5). Student's t test was used for all analyses. * P<0.05. […] Total RNA was extracted using TRIzol reagent (Thermo Fisher Scientific, MA, USA). RNA (1000 ng) was subjected to cDNA synthesis using oligo (dT) random primers (Integrated DNA Technologies, IA, US) and AccuPower RT PreMix (Bioneer, South Korea) according to the following procedure: qRT-PCR was performed with PowerUp SYBR green master mix on a StepOnePlus real-time PCR System (Applied Biosystems, CA, USA) at 42° C. for 60 min and 95° C. for 5 min. The mRNA levels of each gene were normalized to the mRNA levels of GAPDH. The PCR steps are composed of an initial denaturation step at 94° C. for 5 min; at 94° C. for 1 min (denaturation), 55° C. for 1 min (annealing), and 72° C. for 2 min (extension); and a final extension step at 72° C. for 7 min. […] Relative expression was calculated using the 2-ΔΔCt method.

[2] = tested on: keloid nodules formed by human keloid fibroblasts; assay: In vivo histological and immunohistochemical analysis of keloid nodules; parameters: species or system SCID mice
Protocol: A isolates nodules from mice treated with DMSO or Y-27632. […] Original magnification: ×200, scale bar=100 μm.
Nodules were harvested 14 days after initial cell injection, fixed in 4% paraformaldehyde at 4° C. for 24 hours, washed with water for at least 4 hours, and finally embedded in paraffin. Paraffin sections (4 μm thick) were stained with hematoxylin and eosin (H&E, ab245880, Abcam, Cambridge, UK) and MT (TRM-2, ScyTek, Logan, Utah, USA) according to the manufacturer's instructions. The cytoplasm (400× magnification) of H&E-stained sections and the collagen density (400× magnification) of MT-stained sections were checked for each section using an Olympus BX53 microscope (Olympus Corporation, Shinjuku, Japan). Screenshots of three fine fields (right, center, and left) were acquired. The number of inflammatory cells per unit area (0.1 mm^2) was calculated using Olympus cellSens standard imaging software. The optical density of collagen was measured using ImageJ Immunohistochemical staining by avidin-biotin complex method. Briefly, paraformaldehyde (4%) fixed specimens were embedded in paraffin and cut into 4 μm thickness. The sections were dried at 56° C. for 1 hour, and then subjected to deparaffinization and rehydration steps with xylene. The sections were then cultured with trypsin enzyme antigen retrieval solution (ab970, Abcam, Cambridge, UK) at 37° C. for 30 min. Overnight culture was performed with primary antibodies at 4° C. After three washes with Tris-buffered saline containing 0.025% Triton-100, the second antibody was applied to each section at room temperature for 30 min. Images were taken in three fields (right, center, and left) with an Olympus BX53 microscope and analyzed with Image J software.

ROCK1 = conditions: FIG. 4A
Protocol: Mechanical stretching was applied to keloid fibroblasts using a mechanical stretching device (STB-1400; Strex Inc., Osaka, Japan). Briefly, the keloid fibroblasts were seeded at a density of 1.2×10^5 cells in a strex stretch chamber (STB-CH-10 Strex Inc., Osaka, Japan) pre-coated with 20 μg/ml rat tail type I collagen (C7661, Sigma Aldrich). After allowing attachment for overnight incubation, the strex stretch chamber was moved to the stretching device and mounted on a hook. The flexible silicone chamber was exposed to stretching with a length of 0-20% tension at a frequency of 10 cycles/min (0.166 Hz) for 24 hours. […] Cells of the control group were cultured in the same type of chamber in an incubator.
ROCK1 kinase activity was analyzed with a ROCK activity assay kit (Cell Biolabs, CA, USA) according to the manufacturer's instructions. The ROCK activity assay kit is an enzyme immunoassay designed to detect the phosphorylation level of myosin phosphatase target subunit 1 at Thr696 by ROCK. […] The cells were harvested, trypsinized, and washed twice with PBS. […] Protein concentrations were determined using the Pierce BCA Quantification Protein Kit (Thermo Fisher Scientific, MA, USA). […] The absorbance was read at 450 nm with a SpectraMax Plus 384 microplate reader (Molecular Devices, San Jose, CA, USA).

YAP and MRTF = assay: Nuclear translocation of YAP and MRTF during stretching (subcellular fractionation, Western blotting); type: cell-based, human; conditions: stretched keloid fibroblasts, FIG. 6
From the text: A is a Western blotting analysis of nuclear translocation of YAP and MRTF in the subcellular fraction of keloid fibroblasts subjected to or not subjected to mechanical stretching with or without Y-27632. B is a quantitative analysis of cytoplasmic and nuclear expression levels of MRTF and YAP. The results were expressed as the mean with SD (n=5). Student's t test was used for all analyses. *P<0.05. Nuclear/cytoplasmic extracts were separated separately using NE-Per Nuclear and Cytoplamic Extractons Reagents (#78833, Thermo Scientific, MA, USA) according to the manufacturer's instructions. Subcellular fractionation lysis was analyzed by Western blotting analysis for YAP (#5157, Cell Signaling, MA, USA), MRTF (sc-47724, Santa Cruz, CA, USA) including GADPH ([…], Santa Cruz, CA, USA) and Lamin B (#12586, Cell Signaling, MA, USA) as internal markers for cytoplasmic and nuclear fractions, respectively. The quantification was performed with Image J software.

[3] = tested on: keloid nodules formed by human keloid fibroblasts; assay: Patient-derived keloid xenograft SCID mouse model of nodule formation (nodule volume and weight); type: in vivo; conditions: SCID mice, Y-27632 20 mg/kg injected into nodule
Protocol: Approval for animal experiments was obtained from the Animal Experiment Performance Committee of Seoul National University Boramae Hospital (Approval No.: 2019-0031). Male NOD.CB17-Prkdc scid/J (SCID) mice (5 weeks old, weight: 22.58±0.91 g) were purchased from Charles River Japan (Yokohama, Japan). All animal experimental procedures were performed in accordance with the guidelines of the Animal Experiment Research Committee of Seoul Boramae Hospital. All experiments were performed under aseptic conditions. Under anesthesia using isoflurane, the dorsal furs of seven SCID mice were removed, the midline was marked, and then a 26-gauge needle was used in a 1-ml syringe (Becton, Dickinson and Company, Franklin Lakes, NJ, USA). These cells were obtained from seven patients who underwent keloid resection at Seoul National University Boramae Hospital. The cells were injected approximately 1 cm apart from the left and right sides of the most prominent area of the mouse's back. […] The nodules were measured every 2 to 3 days with calipers, and nodule volume was calculated using the following equation: Nodule volume=½×A×B2, where A=length in millimeters, B=width in millimeters. To collect the nodules 14 days after keloid fibroblast injection, the surrounding skin was carefully separated using forceps and a blade, and only the nodules were collected and weighed.

keloid fibroblasts [4] = assay: Cell viability / proliferation of keloid fibroblasts (CCK-8); type: cell-based, human; conditions: increasing dose of Y-27632, 24 hours, FIG. 3A
Protocol: Immunofluorescence confocal microscopy experiments were performed with antibodies to F-actin (green) and vinculin (orange). Scale bar=50 μm. Quantification of fluorescence intensity was shown. The experiments were performed in triplicate. Student's t test was used for all analyses. * P<0.05. […] Briefly, human skin and keloid tissues were collected from five patients who underwent surgical resection at Seoul National University Boramae Hospital. The samples were rinsed three times with Dulbecco's phosphate-buffered saline containing 1% antibiotic-antifungal solution (A/A; Welgene, Gyeongsangbuk-do, Korea) and cut into 3 mm thick pieces. The tissues were then placed in 5 mg/ml dispase solution (Roche, Basel, Switzerland) for 4 hours at 37° C. The dermis and epidermis were separated, chopped into 1-mm thick pieces, and digested in 3 mg/ml collagenase type I (Thermo Fisher, MA, USA) to obtain a single cell suspension. The cells were cultured in Dulbecco's modified Eagle's medium (DMEM; Biowest, Nuaillé, France) containing 10% fetal bovine serum (FBS; Biowest, France) and 1% Antibiotic/Antimycotic Solution (Welgene Inc., Korea) in a humidified incubator at 37° C. and 5% CO2. […] The effect of stretch stimulation on the proliferation of normal and keloid fibroblasts was evaluated by the CCK-8 assay. […] The experiments were performed in triplicate and the data are expressed as the mean±SD.

[5] = tested on: phosphorylated cofilin and myosin light chain (MLC); assay: Western blotting of p-MLC/MLC and p-cofilin/cofilin in keloid fibroblasts; type: cell-based, human; conditions: keloid fibroblasts with or without stretch, Y-27632, FIG. 4C
Protocol: Scale bar=50 μm. The results were expressed as the mean with SD (n=5). The experiments were performed in triplicate. Student's t test was used for all analyses. * P<0.05. […] To obtain whole-cell extracts, cells were lysed with Pierce Cell Lysis Buffer (Thermo Fisher, MA, USA) containing phosphatase inhibitors and protease inhibitors. Protein extracts (30 μg) were analyzed by sodium dodecyl sulfate polyacrylamide gel electrophoresis (SDS-PAGE) and transferred to a polyvinylidene difluoride membrane. […] GAPDH was used as a loading control for Western blotting analysis.

keloid fibroblasts [6] = assay: Transwell migration analysis of keloid fibroblasts; type: cell-based, human; conditions: under mechanical force (stretch 24 hours), 10 μM Y-27632, transwell 24 hours, FIG. 5B
Protocol: Scale bar=200 μm. The results were expressed as the mean with SD (n=5). Student's t test was used for all analyses. * P<0.05.
For migration analysis using Transwell […] pore-size polycarbonate membrane (#3422, Corning Inc., ME, USA). […] As a control, static cells were cultured in a strex stretch chamber under the same conditions without stretch stimulation. Keloid cells were then harvested and counted, and 2×10^4 cells were resuspended in 150 μL of medium containing 1% FBS and reintroduced into the upper compartment of the insert. The lower compartment was filled with 500 μL of medium containing 2% FBS as a chemoattractant. The cells were allowed to migrate for 24 hours at 37° C. The cells were fixed in 4% PFA, permeabilized with 0.1% Triton X-100 in PBS for 10 min, and stained with hematoxylin for 10 min at room temperature. After washing with PBS, non-migrated cells were removed from the upper insert by a cotton swab. The polycarbonate membrane was removed from the insert and mounted on a slide. Fields of migrated cells were captured with an inverted microscope (Leica Microsystems GmbH, Wetzlar, Germany). The migration area was evaluated as a purple area extracted from each image, and analyzed with Image J software as a percentage of the migrated area.

With `C[C@@H](N)[C@H]1CC[C@H](C(=O)Nc2ccncc2)CC1` [Y-27632] the “disruption of F-actin cytoskeletal structure” value (F-actin; at 25 and 50 μM, 24 h, keloid fibroblasts) was “dramatic disruption”, the “cellular F-actin network” value (F-actin; fibroblasts with or without mechanical stretching exposed to Y-27632, FIG. 4B) was “significantly disrupted” and the “F-actin fiber formation in keloid fibroblasts” value (F-actin; increasing doses, 24 h, FIG. 3B) was “tightly regulated by Y-27632 treatment in a dose-dependent manner”. For the same compound, the “mRNA levels of fibrotic genes (COL1A1, COL3A1, Fibronectin, α-SMA, CTGF, PCNA)” value [1] was “decrease”, the “inflammatory cells in the keloid region” value ([2]; H&E staining, compared to the control group) was “reduced inflammatory cells” and the “deposition of collagen bundles (MT staining)” value ([2]; control group compared to the Y-27632-treated group) was “higher deposition of collagen bundles in the control group”. For the same compound, the “protein expression of VEGF, SMA, vimentin, collagen type I, and collagen type III” value ([2]; immunohistochemistry of nodule tissue, compared to the DMSO-treated group, FIG. 7B) was “significantly reduced”, the “decrease in the activity of ROCK1” value (ROCK1; keloid fibroblasts treated with Y-27632 (10 μM, 24 hours) and stretch-stimulated) was 26% and the “decrease in the activity of ROCK1” value (ROCK1; keloid fibroblasts treated with Y-27632 alone (10 μM, 24 hours, static)) was 10.8%. For the same compound, the “nuclear import of YAP and MRTF” value (YAP and MRTF) was “inhibiting nuclear import”, the “weight of keloid nodules compared to the control group” value [3] was “significantly reduced” and the “mean volume of keloid nodules at the time of keloid nodule excision” value ([3]; DMSO control 21.27±13.98) was 17.21±13.49 MM^3. For the same compound, the “average weight of keloid nodules” value ([3]; control 7.61±3.16, FIG. 7A) was 4.56±3.50 Mg, the “inhibitory effect on keloid fibroblast proliferation” value (keloid fibroblasts [4]) was “No inhibitory effect” and the “expression of phosphorylated proteins (p-cofilin, p-MLC)” value [5] was “greatest decrease”. For the same compound, the “migration of keloid fibroblasts” value (keloid fibroblasts [6]) was “partially inhibited”.
